From article PMC8675869, “Oral Efficacy of a Diselenide Compound Loaded in Nanostructured Lipid Carriers in a Murine Model of Visceral Leishmaniasis” (ACS Infectious Diseases, 2021)
≈ marks a conversion by molar mass, not a printed value.

How the values were obtained:
[1] = In vitro hepatic microsomal metabolism; assay type: in vitro ADME, BALB/c mice; details: BALB/c; mouse liver microsomes 0.5 mg protein/mL, 500 μM compound, NADPH, 37 °C; read-out: microsomal stability t1/2 (converted)
Description: Liver microsomes were isolated as previously described with minor modifications.[57] Mouse livers were removed and rinsed with 0.9% (w/v) NaCl solution. Then, livers were homogenized in ice-cold 0.25 M sucrose in 0.1 M PBS (pH 7.5). After 20 min of centrifugation at 9000 × g, the supernatant was ultracentrifuged at 100,000 × g for 1 h at 4 °C. The obtained microsome pellet was washed with 0.05 M PBS (pH 7.5) followed by another ultracentrifugation at 100,000 × g for 1 h at 4 °C. Microsomes were resuspended in 20% glycerol–0.1 M PBS and stored at −80 °C until use. Protein concentration was measured by microBCA kit (Thermo Scientific). […] Controls without hepatic cofactor and blanks without compounds were also analyzed. Metabolism was determined at 0, 0.1, 0.25, 0.5, 1, 1.5, and 2 h by the addition of an equal volume of ice-cold ACN, and samples were centrifuged at 9000 × g for 10 min. Supernatants were stored at −20 °C until high liquid performance chromatography (HPLC) quantification analysis at 290 nm, as described in the Supporting Information. Results are expressed as mean ± SD of at least three replicates. […] The rate of microsomal intrinsic clearance (Clint,micr, mL·min^–1·kg^–1) was then calculated following eq 1([27]) [drawing 1] […]
The calculated Clint,micr was used for the prediction of in vivo intrinsic hepatic clearance (Clint) using eq 2 and suitable scaling factors[27] […]

[2] = Solubility in fasted simulated intestinal fluid (FaSSIF); assay type: physicochemical; details: thermodynamic from solid, fasted simulated intestinal fluid pH 6.5, 4 h, r.t., as Se content, read-out: solubility in SSIF
Description: This experiment determines the solubility of a solid compound in fasted simulated intestinal fluid (FaSSIF) at pH 6.5 after 4 h of equilibration at r.t.[58] In brief, 1 mL of FaSSIF (3 mM sodium taurocholate and 0.75 mM lecithin in sodium phosphate buffer at pH 6.5) was added to 2 mg of the solid compounds. The resulting suspensions were shaken at 900 rpm for 4 h at r.t. Then, they were centrifuged at 12,600 × g for 10 min. The amount of selenocompounds, as selenium (Se) content, remaining in the supernatant was quantified by graphite atomic absorption spectrometry, as described in the Supporting Information. Results are expressed as mean ± SD of three replicates.

[3] = Ex vivo intestinal permeability (Ussing chamber); assay type: in vitro ADME, Wistar rats; details: rat jejunum, mucosal-to-serosal, as Se content; for Papp at 2 h, 5 mM: female, Wistar, rat, pH 7.4, free compounds; for intestinal permeability Papp: free compounds
Description: Intestinal permeation experiments were performed by using the Ussing chamber method as previously described.[59] Wistar female rats were fasted for 16 h with free access to water before the experiment. Rats were anesthetized with isoflurane and sacrificed by cervical dislocation. Jejunum was aseptically extracted, excised in 2 cm segments avoiding Peyer’s patches, and placed in cold 0.9% NaCl solution. Jejunum segments were anchored into the Ussing chambers. All experiments were realized from the apical side or donor compartment (DC) to the basolateral or receptor (RC) direction. For 2h and 2m compounds experiments, 5 mL of deionized water at pH 7.4 containing 4% (w/v) D-α-tocopherol polyethylene glycol 1000 succinate, and 5% (w/v) PEG 400 was added to both compartments to ensure sink conditions. In the case of NLC, 5 mL of PBS was used in both compartments. Chambers were continuously oxygenated and maintained at 37 °C. After 10 min of preincubation, the solution in the DC was replaced by 5 mL of either 2h and 2m solutions (final concentration of 5 mM) or their lyophilized NLC diluted in PBS at a 1 mM (in selenocompound concentration). Samples of 500 μL were collected from the RC every 20 min up to 2 h and replaced by an equal volume of the RC solution. Samples were frozen at −20 °C until analysis. The membrane integrity was evaluated by the addition of yellow lucifer to the DC and the determination of its fluorescence at the end of the experiment.[60] Experiments were carried out in triplicate for each compound and formulation. Se content in the RC was analyzed by flame atomic absorption spectrometry, as explained in the Supporting Information. The apparent permeability coefficient per unit membrane surface area (Papp (cm/s)), expressed as mean ± SD, was calculated according to eq 3 [drawing 3] 3 where dQ/dt was the steady-flux (mg/s), C0 was the initial compound concentration in the DC (mg/mL), and A was the surface area of the membrane (cm^2). It has been stablished that, in general, compounds with Papp > 1 × 10^–6 cm/s are well-absorbed in the human intestinal tract whereas Papp < 1 × 10^–6 cm/s are correlated with poor absorption.[32]

[4] = In vitro release from NLC in SGF and SIF; assay type: physicochemical; details: cumulative Se release
Description: The release studies of compounds 2h and 2m were performed at 37 °C using simulated gastric fluid (SGF, pH 1.2, pepsin 0.32% (w/v)) and simulated intestinal fluid (SIF, pH 6.8, pancreatin 1% (w/v)) with 2% v/v PEG 400, 5% w/v D-α-tocopherol polyethylene glycol 1000 succinate and 2.5% v/v DMSO added to ensure sink conditions. The dialysis membranes (with 100 kDa pore size) were filled with 30 mg of lyophilized formulations either 2h-NLC or 2m-NLC (corresponding to around 60 μg of the selenocompounds) dispersed in 1 mL of distilled water. The loaded dialysis membranes were placed into a beaker containing 25 mL of SGF. The simulated fluid was kept under magnetic stirring at 150 rpm, and at fixed times 0.250 mL samples were withdrawn and replaced with an equal volume of SGF. Two hours after the incubation in SGF, the device was transferred to another beaker containing 25 mL of SIF magnetically stirred at 150 rpm. As previously, at fixed times, samples were withdrawn and replaced with free SIF. The in vitro release study finished 24 h after the experiment began. The amount of Se released from the nanocarriers was determined by graphite atomic absorption spectrometry, as described in the Supporting Information. Results are expressed as mean ± SD of at least three replicates.

[5] = Single-dose pharmacokinetic study in mice (plasma Se); details: BALB/c, mouse, in vivo, ip, 4 mg/kg
Description: A single-dose pharmacokinetic study of 2h, 2m, 2h-NLC, and 2m-NLC were evaluated in mice after i.p. (free drugs) or oral administration (free drugs and loaded into NLC). The dose (4 mg/kg) was selected taking into account LD50 obtained after i.p. administration of the compounds. Blood was collected from the submandibular plexus at different time points: 0, 0.25, 0.5, 1, 2, 4, 8, 24, and 48 h. Collected whole blood samples were centrifuged at 3000 × g for 10 min at 4 °C. The obtained plasma samples were stored at −80 °C until quantification of the drug by graphite atomic absorption spectroscopy, as described in the Supporting Information. Experiments were carried out in triplicate for each compound and formulation. Pharmacokinetic parameters were estimated by fitting the experimental data to a noncompartimental model (NCA) using PKsolver Excel program.[62] The analyzed parameters were as follows: Area under concentration–time curve (AUC), maximum serum concentration (Cmax), clearance (Cl), time of maximum concentration (tmax), mean residence time (MRT), and product half-life (t1/2). The extraction rate (ER) was calculated as the ratio between systemic blood clearance and mouse hepatic blood flow (considered 90 mL·min^–1·kg^–1). […]

[6] = Acute toxicity, Up-and-Down procedure (OECD 425), i.p.; details: mouse, in vivo, ip, 17.5 mg/kg, mice
Description: Acute toxicity was carried out following the Up-and-Down procedure proposed by the OECD 425.[61] Three mice were treated with a dose of 17.5 mg/kg of each compound, 2h and 2m, administered by i.p. route. If all the mice died, 1/3 of the dose was administered to other new three mice. If all of them survived, the dose was tripled. If one or two of them died, the same dose was administered to one or two mice more. Both compounds were solubilized in PEG 400:H2O:D-α-tocopherol polyethylene glycol 1000 succinate (60:38.4:1.6, v/v/w).

[7] = tested on: Salmonella typhimurium (TA1535/pSK1002 strain); experiment: SOS/UMU genotoxicity test; assay type: cell-based; details: with or without metabolic activation, highest concentration 1 mg/mL
Description: Salmonella typhimurium (TA1535/pSK1002 strain) (DSMZ, Germany) was employed to determine the genotoxic potential of the compounds 2h and 2m and some of their possible metabolites, as previously described.[56] Bacteria were exposed to different concentrations of compounds either with or without metabolic activation (S9 mix, Mutazyme) to determine the bacterial survival percentage, calculated by measuring the absorbance at 600 nm. Afterward, the β-galactosidase activity was conducted using a colorimetric method employing o-nitrophenyl-β-D-galactopiranoside (ONPG) as a substrate. Genotoxicity activity was measured in terms of β-galactosidase activity calculating an induction factor (IF) relative to the negative control (i.e., bacteria exposed to the solvent) and positive controls (4-nitroquinoline for normal treatments and 2-aminoantracen for S9 metabolic activated treatments). A compound was considered genotoxic for IF values ≥2 at noncytotoxic concentration (i.e., bacterial survival ≥80%). The experiment was considered valid for positive controls if IF ≥ 2.

[8] = Solubilizing capability of Transcutol for the compounds; assay type: physicochemical; details: Transcutol as solvent
[9] = molecular target: trypanothione reductase (TR); parameters: method as in PMID 33046492; details: concentration that inhibits TR activity by 50%; read-out: TR inhibition IC50; cited from earlier work
THP-1 cells = details: read-out: THP-1 cells CC50; concentration that kills cells by 50%; cited from earlier work
[10] = cited from earlier work
[11] = parameters: method as in PMID 20643750; details: mice, administration for 13 weeks; cited from earlier work
[12] = parameters: method as in PMID 25016034; details: daily oral administration for 90 days; cited from earlier work
[13] = after 4 h of incubation in SIF (following 2 h SGF)
[14] = first 2 h of incubation in SGF, 37 °C, sink conditions

O=C(Nc1ccc([Se][Se]c2ccc(NC(=O)c3ccco3)cc2)cc1)c1ccco1 [2h, N,N′-(4,4′-diselanediylbis(4,1-phenylene))bis-furan-2-carboxamide] showed a half-life at 500 μM [1] of 1.7 h, a solubility at 4 h [2] of 3.2 ± 1.7 µg/mL (≈ 6.03 µM) and a Papp at 2 h, 5 mM [3] of ~0.717 ×10⁻⁶ cm/s. The “intestinal permeability Papp” value [3] was 7.2 ± 2.6 (×10^–7) cm/s, the “compound released from NLC” value [4, 13] was “around 13%” and the “compound released from NLC” value [4, 14] was 5.5 ± 3.1%. For the same compound, the “ER (extraction ratio)” value [5] was <0.3, the LD50 [6] was 17.5 mg/kg and the “genotoxicity (SOS/UMU test)” value [7] was “did not produce cytotoxicity and DNA damage”. The “amount of compound dissolved in Transcutol” value [8] was “up to 6 mg of compound in 0.4 g”, the IC50 [9] was 14 ± 0.9 µM and the CC50 (THP-1 cells) was > 50 µM. The logP [10] was 1.
For Polysorbate 80 [Tween 80], the NOAEL [11] is listed as 10 g/kg/day.
In the case of CCOCCOCCO [Transcutol, diethylene glycol monoethyl ether], the “no observed adverse effect level (NOAEL)” value [12] is listed as 850 to 1000 mg/kg/day.
In the case of O=C(Nc1ccc([Se][Se]c2ccc(NC(=O)c3cccc4ccccc34)cc2)cc1)c1cccc2ccccc12 [2m, N,N′-(4,4′-diselanediylbis(4,1-phenylene))bisnaphthamide], the half-life at 500 μM [1] is reported as 1.2 h, the solubility at 4 h [2] is reported as 2.5 ± 0.5 µg/mL (≈ 3.84 µM) and the Papp at 2 h, 5 mM [3] is reported as ~0.591 ×10⁻⁶ cm/s. The “intestinal permeability Papp” value [3] was 5.9 ± 1.1 (×10^–7) cm/s, the “compound released from NLC” value [4, 13] was ~10% and the “compound released from NLC” value [4, 14] was 3.9 ± 0.3%. The LD50 [6] was 17.5 mg/kg, the “genotoxicity (SOS/UMU test)” value [7] was “did not produce cytotoxicity and DNA damage” and the “amount of compound dissolved in Transcutol” value [8] was “up to 6 mg of compound in 0.4 g”. For the same compound, the IC50 [9] was 5.5 ± 0.1 µM, the CC50 (THP-1 cells) was > 50 µM and the logP [10] was 5.
